Earlier results in patent publication US12569533B2, “Bruising and filler compositions and methods for use” (Alastin Skincare, Inc., priority 2021, dated 2026).

System: hyaluronic acid level
Settings: ex vivo human skin model

CCCCCCCC(=O)CCc1ccc(O)c(OC)c1 [Hydroxymethoxyphenyl decanone]
stimulation of dermal hyaluronic acid level versus placebo (dermal): 259% | stimulation of epidermal hyaluronic acid level versus placebo (epidermal): 198%
